# Measurements from PubChem BioAssay AID330 (DTP/NCI, 2004).
# Where “and” joins values, the source holds several entries; their conditions need not be identical. Identical values can stand only once. Toxic doses and inconclusive results are not listed.
# Tested on: P388 leukemia ip, CD2F1 mice, survival T/C
# Experiment: NCI In Vivo Anticancer Drug Screen. Data for tumor model P388 Leukemia (intraperitoneal) in CD2F1 (CDF1) mice
# Settings: endpoint: median survival time, higher = longer survival
# How it was run: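 Mice carrying the transplanted tumor received test compound or vehicle. Survival was recorded in each group, and the value is the treated-group measurement divided by that of the vehicle-treated control group.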
# [1] = dose: 50.0 mg/kg/injection, schedule: Q01DX009 (ip), vehicle: Klucel (hydroxypropylcellulose) (HPC)
# [2] = dose: 100.0 mg/kg/injection, schedule: Q01DX009 (ip), vehicle: Klucel (hydroxypropylcellulose) (HPC)
# [3] = dose: 200.0 mg/kg/injection, schedule: Q01DX009 (ip), vehicle: Klucel (hydroxypropylcellulose) (HPC)
# [4] = dose: 50.0 mg/kg/injection, schedule: Q01DX009 (ip), vehicle: saline with Tween-80
# [5] = dose: 100.0 mg/kg/injection, schedule: Q01DX009 (ip), vehicle: saline with Tween-80
# [6] = dose: 60.0 mg/kg/injection, schedule: Q01DX005 (ip), vehicle: saline with Tween-80
# [7] = dose: 120.0 mg/kg/injection, schedule: Q01DX005 (ip), vehicle: saline with Tween-80
# [8] = dose: 240.0 mg/kg/injection, schedule: Q01DX005 (ip), vehicle: saline with Tween-80
# [9] = dose: 12.5 mg/kg/injection, schedule: Q01DX009 (ip), vehicle: Klucel (hydroxypropylcellulose) (HPC)
# [10] = dose: 25.0 mg/kg/injection, schedule: Q01DX009 (ip), vehicle: Klucel (hydroxypropylcellulose) (HPC)
# [11] = dose: 50.0 mg/kg/injection, schedule: Q01DX009 (ip), vehicle: saline
structure (smiles),measurement,setting,value
O=C1C(Cl)=C(N2CC2)C(=O)C(Cl)=C1N1CC1,T/C,"dose: 0.08 mg/kg/injection, schedule: Q01DX009 (ip), vehicle: saline with Tween-80",105 % of control
same,T/C,"dose: 0.16 mg/kg/injection, schedule: Q01DX009 (ip), vehicle: saline with Tween-80",112 % of control
same,T/C,"dose: 0.31 mg/kg/injection, schedule: Q01DX009 (ip), vehicle: saline with Tween-80",122 % of control
same,T/C,"dose: 0.63 mg/kg/injection, schedule: Q01DX009 (ip), vehicle: saline with Tween-80",124 % of control
same,T/C,"dose: 2.5 mg/kg/injection, schedule: Q01DX009 (ip), vehicle: saline with Tween-80",155 % of control
same,T/C,"dose: 5.0 mg/kg/injection, schedule: Q01DX009 (ip), vehicle: saline with Tween-80",155 % of control
same,T/C,"dose: 10.0 mg/kg/injection, schedule: Q01DX009 (ip), vehicle: saline with Tween-80",155 % of control
CC(C)n1nnnc1-c1ccccc1,T/C,[1],94 % of control
same,T/C,[2],94 % of control
same,T/C,[3],94 % of control
O=C(NC(=O)C(F)(F)F)Nc1cccc(C(F)(F)F)c1,T/C,[4],114 % of control
same,T/C,[5],94 % of control
same,T/C,"dose: 200.0 mg/kg/injection, schedule: Q01DX009 (ip), vehicle: saline with Tween-80",94 % of control
CC(C)N(C(C)C)P1P(N(C(C)C)C(C)C)P(N(C(C)C)C(C)C)P1N(C(C)C)C(C)C (stereo unspecified),T/C,[6],88 % of control
same,T/C,[7],86 % of control
same,T/C,[8],89 % of control
CC(=O)CC(=O)CCC(=O)Nc1cccc([N+](=O)[O-])c1,T/C,[6],106 % of control
same,T/C,[7],100 % of control
same,T/C,[8],105 % of control
O=C(Nc1ccc(Cc2ccc(NC(=O)Nc3nccs3)cc2)cc1)Nc1nccs1,T/C,[9],100 % of control
same,T/C,[10],100 % of control and 95 % of control
same,T/C,[1],98 % of control and 91 % of control
CC(CCc1ccccc1)NC(C)C(O)c1ccc(O)cc1 (stereo unspecified),T/C,"dose: 25.0 mg/kg/injection, schedule: Q01DX009 (ip), vehicle: saline with Tween-80",100 % of control
same,T/C,[4],100 % of control
same,T/C,[5],90 % of control
COc1ccc2nc(NC(=O)Nc3ccc(Cc4ccc(NC(=O)Nc5nc6ccc(OC)cc6s5)cc4)cc3)sc2c1,T/C,[1],100 % of control
same,T/C,[2],94 % of control
same,T/C,[3],99 % of control
COc1cc(C(=O)CC(=O)CCC(=O)Nc2ccc(Cl)cc2)ccc1O,T/C,[6],104 % of control
same,T/C,[7],103 % of control
same,T/C,[8],98 % of control
[Cu].[NH-]C1CCCC2CCC[N-]C12.[NH-]C1CCCC2CCC[N-]C12 (stereo unspecified),T/C,"dose: 12.5 mg/kg/injection, schedule: Q04DX002 (ip), vehicle: saline with Tween-80",106 % of control
COC(=O)c1cc(-c2ccco2)n2c(NC(=O)Nc3ccc(Cl)cc3)nnc2n1,T/C,"dose: 50.0 mg/kg/injection, schedule: Q01DX005 (ip), vehicle: saline with Tween-80",98 % of control
same,T/C,"dose: 100.0 mg/kg/injection, schedule: Q01DX005 (ip), vehicle: saline with Tween-80",103 % of control
same,T/C,"dose: 200.0 mg/kg/injection, schedule: Q01DX005 (ip), vehicle: saline with Tween-80",95 % of control
CC(=O)OC1=C(Br)CCc2ccccc21,T/C,"dose: 3.12 mg/kg/injection, schedule: Q01DX009 (ip), vehicle: DMSO",103 % of control
same,T/C,"dose: 6.25 mg/kg/injection, schedule: Q01DX009 (ip), vehicle: DMSO",108 % of control
same,T/C,"dose: 12.5 mg/kg/injection, schedule: Q01DX009 (ip), vehicle: DMSO",90 % of control and 96 % of control
same,T/C,"dose: 25.0 mg/kg/injection, schedule: Q01DX009 (ip), vehicle: DMSO",93 % of control
O=S(=O)(Nc1ncccn1)c1ccc(NCc2c3ccccc3nc3ccccc23)cc1,T/C,"dose: 12.5 mg/kg/injection, schedule: Q04DX002 (ip), vehicle: Klucel (hydroxypropylcellulose) (HPC)",96 % of control
same,T/C,"dose: 25.0 mg/kg/injection, schedule: Q04DX002 (ip), vehicle: Klucel (hydroxypropylcellulose) (HPC)",99 % of control
same,T/C,"dose: 50.0 mg/kg/injection, schedule: Q04DX002 (ip), vehicle: Klucel (hydroxypropylcellulose) (HPC)",87 % of control and 96 % of control
same,T/C,"dose: 100.0 mg/kg/injection, schedule: Q04DX002 (ip), vehicle: Klucel (hydroxypropylcellulose) (HPC)",87 % of control and 90 % of control
same,T/C,"dose: 200.0 mg/kg/injection, schedule: Q04DX002 (ip), vehicle: Klucel (hydroxypropylcellulose) (HPC)",96 % of control
same,T/C,"dose: 400.0 mg/kg/injection, schedule: Q04DX002 (ip), vehicle: Klucel (hydroxypropylcellulose) (HPC)",91 % of control and 96 % of control
N#Cc1c2c(c(=O)n3c1[nH]c1ccccc13)CCC2,T/C,[6],100 % of control
same,T/C,[7],93 % of control
same,T/C,[8],94 % of control
COC(=O)CC1(C(=O)OC)C2=C(C(=O)c3ccccc3C2=O)N2CCCC21 (stereo unspecified),T/C,[9],99 % of control
same,T/C,[10],100 % of control
same,T/C,[1],106 % of control
same,T/C,[2],103 % of control
CC(=O)NS(=O)(=O)c1ccc(N=NC2=C(O)C(c3ccccc3)N(c3ccccc3)C2=O)cc1 (stereo unspecified),T/C,[6],96 % of control
same,T/C,[7],91 % of control
CCCc1c(Cl)[nH]c(=O)n(C)c1=O,T/C,"dose: 50.0 mg/kg/injection, schedule: Q01DX005 (ip), vehicle: Klucel (hydroxypropylcellulose) (HPC)",111 % of control
same,T/C,"dose: 100.0 mg/kg/injection, schedule: Q01DX005 (ip), vehicle: Klucel (hydroxypropylcellulose) (HPC)",111 % of control
same,T/C,"dose: 200.0 mg/kg/injection, schedule: Q01DX005 (ip), vehicle: Klucel (hydroxypropylcellulose) (HPC)",97 % of control
S=C(S)N1CCCC1,T/C,[11],100 % of control
same,T/C,"dose: 100.0 mg/kg/injection, schedule: Q01DX009 (ip), vehicle: saline",93 % of control
C1CN2CCCN3CCCN(C1)P23,T/C,"dose: 100.0 mg/kg/injection, schedule: Q04DX002 (ip), vehicle: saline",115 % of control
same,T/C,"dose: 200.0 mg/kg/injection, schedule: Q04DX002 (ip), vehicle: saline",98 % of control
C=CC1(C)CC(C)=NC1C(=O)c1c[nH]c2ccccc12 (stereo unspecified),T/C,"dose: 12.5 mg/kg/injection, schedule: Q01DX005 (ip), vehicle: DMSO",100 % of control
same,T/C,"dose: 25.0 mg/kg/injection, schedule: Q01DX005 (ip), vehicle: DMSO",97 % of control
same,T/C,"dose: 50.0 mg/kg/injection, schedule: Q01DX005 (ip), vehicle: DMSO",90 % of control
same,T/C,"dose: 100.0 mg/kg/injection, schedule: Q01DX005 (ip), vehicle: DMSO",94 % of control
same,T/C,"dose: 200.0 mg/kg/injection, schedule: Q01DX005 (ip), vehicle: DMSO",90 % of control
CNc1ncnc2c1cnn2C,T/C,[4],95 % of control
same,T/C,"dose: 100.0 mg/kg/injection, schedule: Q04DX003 (ip), vehicle: saline",104 % of control
same,T/C,"dose: 200.0 mg/kg/injection, schedule: Q04DX003 (ip), vehicle: saline",109 % of control
CSC(C#N)(c1ccccc1)N(C)C (stereo unspecified),T/C,"dose: 25.0 mg/kg/injection, schedule: Q04DX003 (ip), vehicle: suspension in saline",106 % of control
same,T/C,"dose: 50.0 mg/kg/injection, schedule: Q04DX003 (ip), vehicle: suspension in saline",103 % of control
same,T/C,"dose: 100.0 mg/kg/injection, schedule: Q04DX003 (ip), vehicle: saline with Tween-80",103 % of control
same,T/C,"dose: 100.0 mg/kg/injection, schedule: Q04DX003 (ip), vehicle: suspension in saline",96 % of control
COC1=C(OC)C(=O)C(Sc2ccccc2)=C(CO)C1=O,T/C,"dose: 1.56 mg/kg/injection, schedule: Q01DX005 (ip), vehicle: saline with Tween-80",92 % of control
same,T/C,"dose: 3.12 mg/kg/injection, schedule: Q01DX005 (ip), vehicle: saline with Tween-80",87 % of control
same,T/C,"dose: 12.5 mg/kg/injection, schedule: Q01DX005 (ip), vehicle: saline with Tween-80",99 % of control
O=[N+]([O-])[O][Sn]([O][Sn]([O][N+](=O)[O-])([c]1ccccc1)[c]1ccccc1)([c]1ccccc1)[c]1ccccc1,T/C,"dose: 1.56 mg/kg/injection, schedule: Q01DX005 (ip), vehicle: Klucel (hydroxypropylcellulose) (HPC)",102 % of control
same,T/C,"dose: 3.12 mg/kg/injection, schedule: Q01DX005 (ip), vehicle: Klucel (hydroxypropylcellulose) (HPC)",99 % of control
same,T/C,"dose: 6.25 mg/kg/injection, schedule: Q01DX005 (ip), vehicle: Klucel (hydroxypropylcellulose) (HPC)",97 % of control
same,T/C,"dose: 12.5 mg/kg/injection, schedule: Q01DX005 (ip), vehicle: Klucel (hydroxypropylcellulose) (HPC)",122 % of control
same,T/C,"dose: 12.5 mg/kg/injection, schedule: Q01DX005 (ip), vehicle: saline",96 % of control
NC(=S)N/N=C1/CC(=O)N(c2ccccc2)C1c1ccccc1 (stereo unspecified),T/C,[6],103 % of control
same,T/C,[7],98 % of control
same,T/C,[8],94 % of control
OCCSCc1cnc2ccccn12,T/C,"dose: 25.0 mg/kg/injection, schedule: Q01DX009 (ip), vehicle: saline",105 % of control
same,T/C,[11],100 % of control
